Data on 20 molecules can be found in patent US12344606B2, “Next-generation modulators of stimulator of interferon genes (STING)” (RYVU THERAPEUTICS S.A., priority 2019, dated 2025).

Assay [1] has as its system NF-κB pathway in THP-1 dual cells. Kind of assay: THP-1 Dual reporter assay, NF-κB pathway (SEAP). The format is cell-based. To be noted: Homo sapiens, THP1-Dual; 18 h stimulation, absorbance; read-out: THP1 Dual EC50 (μM) NFkB. The procedure: (§1) Compounds of the present invention were tested for their activity using THP-1 dual cells (Invivogen, cat no. thpd-nfis) allowing for simultaneous study of NF-κB pathway and the interferon regulatory factor (IRF) pathway. THP-1 dual cells contain luciferase reporter gene under the control of an ISG54 (interferon-stimulated gene) minimal promoter in conjunction with five interferon-stimulated response elements and a secreted embryonic alkaline phosphatase reporter gene under the control an IFN (interferon)-β minimal promoter fused to five copies of the NF-κB consensus transcriptional response element with three copies of the c-Rel binding site. Following 18 h of stimulation with STING agonist, medium was collected and transferred onto fresh cell culture plate. To verify activity of the IRF pathway, luminescence activity was measured with standard laboratory plate reader immediately after addition 10 μl of the medium to 50 μl (or 40 μl) of luminescence reagent (Invivogen, cat. No. rep-qlc2). To verify activity of NF-κB pathway, 20 μl (or 10 μl) of the medium was mixed with 80 μl of a detection medium (Invivogen, cat. No. rep-qb2) and incubated for 2 hours (or 1 hour) at 37° C. in a humidified atmosphere containing 5% CO2. Next, absorbance at 630 nm (or 655 nm) was recorded using standard laboratory plate reader.

The next assay addresses human STING (Homo sapiens, UniProt Q86WV6). Kind of assay: Fluorescence Thermal Shift assay (hSTING FTS binding assay). The settings on record: STING 0.1 mg/ml, 20 min preincubation, SyproOrange. The procedure: Compounds of the present invention were tested for binding to human STING in Fluorescence Thermal Shift assay. STING was preincubated with the compounds for 20 minutes in 50 mM Hepes, 150 mM NaCl, pH 7.5 in 16 μl volume, following by adding 4 μl of SyproOrange dye dilution (ThermoFisher, cat no. S-6651). Final STING concentration was 0.1 mg/ml. Thermal unfolding was performed in Real-Time PCR QuantStudio 6 Flex System (Applied Biosystems), from 25 to 99° C., with continuous ramp mode and ramp rate 0.033° C./s. The data were analyzed using Protein Thermal Shift Software (ThermoFisher).

The test system of assay [2] is interferon regulatory factor (IRF) pathway in THP-1 dual cells. Kind of assay: THP-1 Dual reporter assay, IRF pathway (luciferase). The format is cell-based. The settings on record: Homo sapiens, THP1-Dual; 18 h stimulation, luminescence. As for the experimental part: as §1
(In general: A reporter such as luciferase makes a cellular process visible.)

human STING, sequence (Q86WV6 whole entry H232R): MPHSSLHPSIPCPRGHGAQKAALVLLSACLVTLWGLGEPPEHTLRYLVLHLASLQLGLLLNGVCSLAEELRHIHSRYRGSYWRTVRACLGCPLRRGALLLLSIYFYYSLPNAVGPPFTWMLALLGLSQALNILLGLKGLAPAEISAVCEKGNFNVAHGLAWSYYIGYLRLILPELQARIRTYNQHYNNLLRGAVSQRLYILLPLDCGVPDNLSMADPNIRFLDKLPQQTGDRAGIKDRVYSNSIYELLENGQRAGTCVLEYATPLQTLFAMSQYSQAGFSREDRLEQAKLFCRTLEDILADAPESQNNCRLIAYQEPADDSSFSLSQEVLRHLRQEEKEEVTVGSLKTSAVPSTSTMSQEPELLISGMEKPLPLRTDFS

For `Cn1cc(CN(Cc2ccncc2)[C@H]2CCCN(c3cccnc3)C2)c(=O)c2ccccc21` [Example 39, 1-methyl-3-({[(3S)-1-(pyridin-3-yl)piperidin-3-yl][(pyridin-4-yl)methyl]amino}methyl)-1,4-dihydroquinolin-4-one], the EC50 – broadly, the midpoint of the concentration-response curve – in assay [1] is 1 to 10 µM; in assay [2] it was ≤ 1 µM. Also, at human STING, the “hSTING FTS binding assay (ΔT C.°)” value was “++ (ΔTm>10° C.)”.

Take `Cc1cc(CN(Cc2cn(C)c3ccccc3c2=O)[C@H]2C[C@@H](C)CN(c3cccnc3)C2)ccn1` [Example 27, 1-methyl-3-({[(3S,5R)-5-methyl-1-(pyridin-3-yl)piperidin-3-yl][(2-methylpyridin-4-yl)methyl]amino}methyl)-1,4-dihydroquinolin-4-one]: the EC50 in assay [1] and in assay [2] was ≥ 10 µM in each case. The “hSTING FTS binding assay (ΔT C.°)” value at human STING is given as “+ (ΔTm<10° C.)”.

In the case of `Cc1cc(CN(Cc2cn(C3CC3)c3cc(F)c(F)cc3c2=O)[C@H]2CCCN(c3cccnc3)C2)ccn1` [Example 12, 1-cyclopropyl-6,7-difluoro-3-({[(2-methylpyridin-4-yl)methyl][(3S)-1-(pyridin-3-yl)piperidin-3-yl]amino}methyl)-1,4-dihydroquinolin-4-one], the half-maximal effective concentration (EC50) in assay [1] and in assay [2] was ≤ 1 µM in each case. The “hSTING FTS binding assay (ΔT C.°)” value on human STING is “++ (ΔTm>10° C.)”.

For the molecule `COc1cc(CN(Cc2c[nH]c3ccccc3c2=O)[C@H]2CCCN(c3cccnc3)C2)ccn1` [Example 6, 3-({[(2-methoxypyridin-4-yl)methyl][(3S)-1-(pyridin-3-yl)piperidin-3-yl]amino}methyl)-1,4-dihydroquinolin-4-one], the EC50 in assay [1] and in assay [2] was ≤ 1 µM each time. Besides, on human STING, the “hSTING FTS binding assay (ΔT C.°)” value is recorded as “++ (ΔTm>10° C.)”.

Regarding `Cc1ccc(N2CCC[C@H](N(Cc3ccnc(C)c3)Cc3cn(C4CC4)c4cc(Cl)c(F)cc4c3=O)C2)cn1` [Example 40, 7-chloro-1-cyclopropyl-6-fluoro-3-({[(3S)-1-(6-methylpyridin-3-yl)piperidin-3-yl][(2-methylpyridin-4-yl)methyl]amino}methyl)-1,4-dihydroquinolin-4-one], the EC50 in assay [1] and in assay [2] was ≤ 1 µM in each case. The “hSTING FTS binding assay (ΔT C.°)” value at human STING is listed as “++ (ΔTm>10° C.)”.

For `Cc1cc(CN(Cc2cn(C)c3ccccc3c2=O)[C@H]2CCCN(c3ccnc(Cl)n3)C2)ccn1` [Example 54, 3-({[(3S)-1-(2-chloropyrimidin-4-yl)piperidin-3-yl][(2-methylpyridin-4-yl)methyl]amino}methyl)-1-methyl-1,4-dihydroquinolin-4-one], the half-maximal effective concentration (EC50) in assay [1] and in assay [2] was 1 to 10 µM throughout.

On to `COc1nc2c(cc1F)c(=O)c(CN(Cc1ccnc(C)c1)[C@H]1CCCN(c3ccc(C)nc3)C1)cn2C(C)C` [Example 62, 6-fluoro-7-methoxy-3-({[(3S)-1-(6-methylpyridin-3-yl)piperidin-3-yl][(2-methylpyridin-4-yl)methyl]amino}methyl)-1-(propan-2-yl)-1,4-dihydro-1,8-naphthyridin-4-one], for which the concentration for a half-maximal effect (EC50) in assay [1] and in assay [2] was ≤ 1 µM in each case.

With `Cc1ccc(N2CCC[C@H](N(Cc3ccnc(C)c3)Cc3cn(C4CC4)c4cc(N5CCNCC5)c(F)cc4c3=O)C2)cn1` [Example 47, 1-cyclopropyl-6-fluoro-3-({[(3S)-1-(6-methylpyridin-3-yl)piperidin-3-yl][(2-methylpyridin-4-yl)methyl]amino}methyl)-7-(piperazin-1-yl)-1,4-dihydroquinolin-4-one], the half-maximal effective concentration (EC50) in assay [1] and in assay [2] was ≤ 1 µM in each case. Moreover, on human STING, the “hSTING FTS binding assay (ΔT C.°)” value was “++ (ΔTm>10° C.)”.

Consider `Cc1cc(CN(Cc2cn(C)c3ccccc3c2=O)[C@H]2CCCN(c3cc(Cl)ncn3)C2)ccn1` [Example 17, 3-({[(3S)-1-(6-chloropyrimidin-4-yl)piperidin-3-yl][(2-methylpyridin-4-yl)methyl]amino}methyl)-1-methyl-1,4-dihydroquinolin-4-one], for which the EC50 in assay [1] and in assay [2] was 1 to 10 µM throughout.

As for `Cc1ccc(N2CCC[C@H](N(Cc3ccnc(C)c3)Cc3c[nH]c4ccccc4c3=O)C2)cn1` [Example 58, 3-({[(3S)-1-(6-methylpyridin-3-yl)piperidin-3-yl][(2-methylpyridin-4-yl)methyl]amino}methyl)-1,4-dihydroquinolin-4-one], the concentration giving a half-maximal response (EC50) in assay [1] and in assay [2] was ≤ 1 µM throughout. Besides, the “hSTING FTS binding assay (ΔT C.°)” value at human STING is on record as “++ (ΔTm>10° C.)”.

For the molecule `Cc1cc(CN(Cc2cn(C)c3ccccc3c2=O)C2CN(c3cccnc3)CC(F)(F)C2)ccn1` (stereo not drawn) [Example 34, 3-({[5,5-difluoro-1-(pyridin-3-yl)piperidin-3-yl][(2-methylpyridin-4-yl)methyl]amino}methyl)-1-methyl-1,4-dihydroquinolin-4-one], the half-maximal effective concentration (EC50) in assay [1] and in assay [2] was ≥ 10 µM each time. Besides, the “hSTING FTS binding assay (ΔT C.°)” value at human STING is listed as “+ (ΔTm<10° C.)”.

For `Cc1cc(CN(Cc2cn(C)c3ccccc3c2=O)C2CCCN(c3cccnc3)C2)ccn1` (stereo not drawn) [Example 2, 1-methyl-3-({[(2-methylpyridin-4-yl)methyl][1-(pyridin-3-yl)piperidin-3-yl]amino}methyl)-1,4-dihydroquinolin-4-one], the EC50 in assay [1] and in assay [2] was ≤ 1 µM throughout. For the same molecule, the “hSTING FTS binding assay (ΔT C.°)” value at human STING is “++ (ΔTm>10° C.)”.

Regarding `Cc1ccc(N2CCC[C@H](N(Cc3ccnc(C)c3)Cc3cn(C(C)C)c4nc(Cl)c(F)cc4c3=O)C2)cn1` [Example 61, 7-chloro-6-fluoro-3-({[(3S)-1-(6-methylpyridin-3-yl)piperidin-3-yl][(2-methylpyridin-4-yl)methyl]amino}methyl)-1-(propan-2-yl)-1,4-dihydro-1,8-naphthyridin-4-one], the EC50 in assay [1] and in assay [2] was ≤ 1 µM each time.

With `Cc1ccc(N2CCC[C@H](N(Cc3ccnc(C)c3)Cc3cn(C4CC4)c4cc(C5=CCCCC5)c(F)cc4c3=O)C2)cn1` [Example 57, 7-(cyclohex-1-en-1-yl)-1-cyclopropyl-6-fluoro-3-({[(3S)-1-(6-methylpyridin-3-yl)piperidin-3-yl][(2-methylpyridin-4-yl)methyl]amino}methyl)-1,4-dihydroquinolin-4-one], the concentration giving a half-maximal response (EC50) in assay [1] and in assay [2] was ≤ 1 µM in each case.

Take `Cc1ccc(N2CCC[C@H](N(Cc3ccnc(C)c3)Cc3cn(C)c4c(Br)cccc4c3=O)C2)cn1` [Example 60, 8-bromo-1-methyl-3-({[(3S)-1-(6-methylpyridin-3-yl)piperidin-3-yl][(2-methylpyridin-4-yl)methyl]amino}methyl)-1,4-dihydroquinolin-4-one]: the EC50 in assay [1] and in assay [2] was ≤ 1 µM in each case.

For `Cc1ccc(N2CCC[C@H](N(Cc3ccnc(C)c3)Cc3cn(C4CC4)c4cc(C5COCCN5)ccc4c3=O)C2)cn1` (stereo partly drawn) [Example 64, 1-Cyclopropyl-3-({[(3S)-1-(6-methylpyridin-3-yl)piperidin-3-yl][(2-methylpyridin-4-yl)methyl]amino}methyl)-7-(morpholin-3-yl)-1,4-dihydroquinolin-4-one], the half-maximal effective concentration (EC50) in assay [1] and in assay [2] was ≤ 1 µM throughout.

As for `Cc1cc(CN(Cc2cn(C3CC3)c3cc(Cl)c(F)cc3c2=O)[C@H]2CCCN(c3cccnc3)C2)ccn1` [Example 33, 7-chloro-1-cyclopropyl-6-fluoro-3-({[(2-methylpyridin-4-yl)methyl][(3S)-1-(pyridin-3-yl)piperidin-3-yl]amino}methyl)-1,4-dihydroquinolin-4-one], the EC50 in assay [1] and in assay [2] was ≤ 1 µM each time.

Turning to `Cc1cc(CN(Cc2cn(C)c3ccccc3c2=O)[C@H]2CCCN(c3cccnc3)C2)n(C)n1` [Example 63, 3-({[(1,3-dimethyl-1H-pyrazol-5-yl)methyl][(3S)-1-(pyridin-3-yl)piperidin-3-yl]amino}methyl)-1-methyl-1,4-dihydroquinolin-4-one], the EC50 in assay [1] is ≥ 10 µM; in assay [2] it was 1 to 10 µM.

`Cc1cc(CN(Cc2cn(C)c3ccccc3c2=O)[C@H]2CCCN(c3ccnc(Cl)n3)C2)ccn1` [Example 19, 3-({[(3S)-1-(2-chloropyrimidin-4-yl)piperidin-3-yl][(2-methylpyridin-4-yl)methyl]amino}methyl)-1-methyl-1,4-dihydroquinolin-4-one]: at human STING, the “hSTING FTS binding assay (ΔT C.°)” value is listed as “+ (ΔTm<10° C.)”.

For the molecule `Cc1ccc(N2CCC[C@H](N(Cc3ccnc(C)c3)Cc3cn(C)c4ccccc4c3=O)C2)cn1` [Example 7, 1-methyl-3-({[(3S)-1-(6-methylpyridin-3-yl)piperidin-3-yl][(2-methylpyridin-4-yl)methyl]amino}methyl)-1,4-dihydroquinolin-4-one], the EC50 in assay [1] and in assay [2] was ≤ 1 µM throughout.
